How the values were obtained:
human PAR-1 = target: T1, human PAR-1 (Homo sapiens, UniProt P25116); assay: Inhibitory activity against PAR-1, calcium ion flux fluorescence method (FLIPR); type: cell-based; conditions: HEK293/Ga15 cells expressing human PAR-1, TFLLR-NH2 10 μM, starting concentration 30 μM
T1 construct: host or cells: HEK293/Ga15 recombinant cell line
T1 sequence (P25116 22-425): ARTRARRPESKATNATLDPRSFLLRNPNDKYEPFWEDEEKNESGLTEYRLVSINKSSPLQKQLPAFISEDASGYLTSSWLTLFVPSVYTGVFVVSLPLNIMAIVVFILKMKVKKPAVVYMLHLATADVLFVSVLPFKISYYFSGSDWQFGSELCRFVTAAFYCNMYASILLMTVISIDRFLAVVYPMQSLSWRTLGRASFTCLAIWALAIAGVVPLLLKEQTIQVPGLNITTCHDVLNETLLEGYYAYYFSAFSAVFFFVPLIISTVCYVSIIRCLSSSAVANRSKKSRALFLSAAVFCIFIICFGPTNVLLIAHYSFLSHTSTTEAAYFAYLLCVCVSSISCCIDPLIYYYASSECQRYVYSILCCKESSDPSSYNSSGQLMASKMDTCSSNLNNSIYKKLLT
Method: The inhibitory activity of the title compounds against human PAR-1 was determined by a calcium ion flux fluorescence method (an FLIPR method). The method thereof was reported in the literature of Zhong et al. [Zhong et al. J Biomol Struct Dyn, 2017, 35(13):2853].
An HEK293/Ga15 recombinant cell line (HD Biosciences, Shanghai, China) stably expressing human PAR-1 was cultured in a DMEM (Thermo Fisher Scientific, Shanghai) culture solution (containing 10% calf serum, 800 μg/mL G418). Incubator conditions were 37° C. and an air humidity with 5% CO2.
On the first day, 20 μL per well of PAR-1 cells at a concentration of 4E+5 cells/mL were seeded in a 384-well analysis plate (Corning 3712). […] On the second day, a culture solution in each well was poured off. Then, 20 μL of 1×loading dye (2 μM Fluo-8 AM in 1×HBSS with 20 mM HEPES, 1 mM Probenecid, 0.025% Pluronic F-127 assay buffer) was added in each well. The cell analysis plate was cultured for 1 hour at a room temperature.
The compounds were dissolved into 100% DMSO to prepare a 10 mM stock solution, which was stored at −20° C. On the day of use, the compound stock solution was thawed at a room temperature. Each compound was subjected to 1:3 serial dilution at 11 concentration points with a DMEM culture solution with a starting concentration of 30 μM. Each compound was subjected to double dilution for testing. A positive control compound was diluted in the same way with SCH79797 with a starting concentration of 30 μM.
The cell analysis plate was placed in a FLIPR instrument (Molecular Device) and 10 μL of compounds (3× of a final concentration) in a compound plate was added to corresponding wells of the cell analysis plate. After 10 minutes, 10 μL of TFLLR-NH2 (TFA) (a final concentration of 10 μM) was added to each well to stimulate generation of intracellular calcium flux signals. Ca^++-dependent fluorescence signals were continuously monitored at excitation wavelengths of 470/495 nm and emission wavelengths of 515/575 nm to analyze the inhibitory activity of the compounds.
Data were collected and analyzed by using an FLIPR program. The inhibitory (or agonistic) activity of the compounds at each concentration was assessed by fluorescence peaks. IC50 values of the compounds were calculated by using EXCEL and PRISM programs.

[1] = Stability in simulated gastric fluids and simulated intestinal fluids; type: in vitro ADME; conditions: 1.25 μM, 37° C., up to 5 hours, pH 1.3 with pepsin / pH 6.8 with trypsin; result in words
Method: An LC-MS/MS method, wherein A liquid phase method adopts a gradient elution method. Chromatographic Column: ACQUITY UPLC® BEH C18 (2.1 mm×50 mm, 1.7 μm); Flow Rate: 0.35 mL/min; Injection Volume: 1 μL; Column Temperature: 40° C.; Automatic Sampler Temperature: 10° C.; Mobile Phase Compositions: mobile phase A: 0.1% formic acid water, and mobile phase B: acetonitrile. Mass spectrometry conditions adopt an ESI source, and positive ion and multiple reaction monitoring (MRM) modes were used for mass spectrometry analysis.
Simulated gastric fluid and simulated intestinal fluid samples were taken, in which 1,200 μL of an acetonitrile solution containing an internal standard (5 ng/mL loratadine) was added. Even vortex mixing was conducted at 2,500 rpm. Centrifuging was conducted for 10 minutes at 20,000 rcf at 4° C. […] Contents of prototype drugs were detected by LC-MS/MS. […]
MassLynx V4.2 software was used for data collecting. After integration parameters were optimized, target chromatographic peaks were automatically integrated, individual chromatographic peaks were not allowed to be integrated separately or manually, and retention time and a peak area were calculated. Data was collected by MassLynx V4.2, and subjected to integration processing to obtain the retention time and the peak area, and a peak area ratio of an analyte to an internal standard was calculated. […]

Row | Compound | IC50 (human PAR-1) [µM] | stability in artificial gastric and intestinal fluids [1]
1 | CCOC(=O)N(C)[C@H]1CN(C(=O)N[C@H](C)c2cnc(C(F)(F)F)nc2)N=C1c1ccc(C)cc1 [Compound 4, (S)-4-(N-methyl-N-ethoxycarbonylamino)-3-(4-methylphenyl)-N-((R)-1-(2-(trifluoromethyl)pyrimidin-5-yl)ethyl)-4,5-dihydro-1H-pyrazol-1-carboxamide] | > 30 | relatively stable
2 | Cc1ccc(C2=NN(C(=O)N[C@H](C)c3ccc(C(F)(F)F)nc3)C[C@@H]2N2CCOC2=O)cc1 [Compound 22] | > 30 | relatively stable
